Reference: a compilation of properties of binary mixtures (doi:10.1016/j.molliq.2012.10.030)

Assay: xn = mol fraction of the nth substance listed
Conditions: 101 kPa

CNc1ccccc1 + CC[n+]1ccn(C)c1.F[B-](F)(F)F
speed of sound [m/s]
Conditions	293.15 K	298.15 K	303.15 K	308.15 K
x1 = 0.0712	–	1614.7	1602.2	1590.8
x1 = 0.0944	–	1613.8	1601	–
x1 = 0.1175	–	1613.2	1600.3	1588.7
x1 = 0.1685	1624.3	1612.5	1599.3	1587.6
x1 = 0.2164	–	–	1599.5	1587
x1 = 0.2818	1626.5	1613.9	–	1587.3
x1 = 0.3365	1628.2	–	1601.2	1587.4
x1 = 0.3805	1629.4	1616.2	1602.2	–
x1 = 0.4166	1630.8	1617.3	1602.8	1587.8
x1 = 0.4775	1632.2	1617.7	1602.8	1587.7
x1 = 0.5287	1632.6	1617.9	1602.4	1586.3
x1 = 0.5855	1631.8	1616.5	1601.1	1584.2
x1 = 0.6144	1631	1615.8	1599.8	1583
x1 = 0.6638	1629.2	1612.8	1596.4	–
x1 = 0.7202	1625.3	1608.7	1591.8	1573.8
x1 = 0.7822	1618.8	1601.9	1584.4	1566.7
x1 = 0.8343	1612	1594.6	1577.1	1558.8
x1 = 0.8775	1605.6	1587.8	1570.3	1551.7

Nc1ccccc1 + CC[n+]1ccn(C)c1.F[B-](F)(F)F
speed of sound [m/s]
Conditions	293.15 K	298.15 K	303.15 K	308.15 K
x1 = 0.0697	–	1622.2	1610.3	–
x1 = 0.0803	1635.7	1622.9	–	1598.9
x1 = 0.1286	1640	1626.7	1614.7	1602.6
x1 = 0.1717	–	1631.2	–	1606.5
x1 = 0.2251	1650.5	1637.2	–	1612.4
x1 = 0.2724	1656.5	–	1630.2	1617.6
x1 = 0.3253	1662.9	–	1636.4	1624.1
x1 = 0.3805	1669.9	–	1642.3	1630.2
x1 = 0.4288	1675	1662	1647.5	1634.5
x1 = 0.4681	1679	1666.2	–	1637.9
x1 = 0.5287	–	1670.4	–	1642
x1 = 0.5755	–	1673.2	–	1643
x1 = 0.6258	–	1673.9	–	1643.3
x1 = 0.6802	–	1673.3	1655.5	–
x1 = 0.7231	–	1672	–	1639.2
x1 = 0.7785	1685.7	1667.6	1648.9	1634.7
x1 = 0.8257	1681.7	1663.2	1644.1	1628.9
x1 = 0.8697	–	–	1638.4	–

Cc1ccccc1N + CC[n+]1ccn(C)c1.F[B-](F)(F)F
speed of sound [m/s]
Conditions	293.15 K	298.15 K	303.15 K	308.15 K
x1 = 0.0684	1639.1	1625	1612.5	1600.1
x1 = 0.0786	–	1626.5	–	1601.3
x1 = 0.1243	–	1634.3	1621.2	1607.9
x1 = 0.1783	–	1645.9	1632	1618
x1 = 0.2255	1668.2	1657.2	1643.2	–
x1 = 0.2781	1679.5	1670.1	–	1640.6
x1 = 0.3234	1689.5	–	1667.1	1651.6
x1 = 0.3712	–	–	1678	1662.1
x1 = 0.4096	1706.3	–	1685.2	1669.1
x1 = 0.4763	1716.8	1710.8	–	1679
x1 = 0.5242	1722.8	1716	1700.5	1683.9
x1 = 0.5781	1726.3	1717.7	1701.7	1685
x1 = 0.6254	1725.7	–	1698.4	–
x1 = 0.6771	1723.3	1709.7	1692.5	1675.6
x1 = 0.7226	1716.8	1700.6	1682.6	1665.6
x1 = 0.7683	1708	1689.4	1670.5	1653.2
x1 = 0.8276	1692.8	1671.5	1651.2	1633.6
x1 = 0.8687	1679	1656.7	1635.4	1617.4
